# Test results taken from publication PMC7482398 (Molecular Pharmaceutics, 2020).
# Like-named read-outs stand apart in the source and are kept apart here.
# Tests used:
# [1] = tested on: Salmonella typhimurium; conditions: Salmonella typhimurium mutation test; cited from earlier work
# [2] = tested on: Sprague Dawley rats; conditions: male and female Sprague Dawley rats, 2.5 mg/kg body weight, 14 days of observation; cited from earlier work
# [3] = tested on: Escherichia coli; conditions: Escherichia coli mutation test; cited from earlier work
# [4] = rats, 30 min after tracer injection; cited from earlier work
# [5] = tested on: P-gp function at the blood–brain barrier; conditions: rhesus monkey, in vivo
# [6] = tested on: P-gp function at the BBB; conditions: cited from earlier work
# [7] = rhesus monkey, in vivo
# [8] = tested on: P-gp; conditions: cited from earlier work
# [9] = cited from earlier work
# [10] = after P-gp inhibition, tariquidar 8 mg/kg i.v. 30 min before PET
SMILES,mutagenic activity [1],toxicity [2],mutagenic activity [3],parent [18F]MC225 still available in plasma [4] [%],change in K1 between baseline and after-inhibition [5],increase of whole brain VT from 10 min to 91-min data [5] [%],"K1 rats [6, 10]","VT rats [6, 10]",K1 rats ([6]; baseline scans) [mL/mL/min],VT rats ([6]; baseline scans),increase in K1 after tariquidar compared with baseline ([6]; rats),increase in VT after tariquidar compared with baseline ([6]; rats),whole brain K1 higher in tariquidar-treated rats than in control rats ([6]; rats) [%],whole brain VT higher in tariquidar-treated rats than in control rats ([6]; rats) [%],plasma radioactivity representing the parent tracer [7] [%],difference in biological T1/2 and Ke between baseline and after-inhibition scans ([7]; 8 mg/kg),"VT (brain uptake at the baseline) ([8]; mice and rats, baseline)","transporter selectivity (P-gp vs BCRP) ([8]; ref Savolainen et al. (2017), 14)",log D [9]
"COc1cc2c(cc1OC)CN(CCCC1CCCc3c(OCCF)cccc31)CC2 (stereo not shown) [MC225, 5-(1-(2-fluoroethoxy))-[3-(6,7-dimethoxy-3,4-dihydro-1H-isoquinolin-2-yl)-propyl]-5,6,7,8-tetrahydronaphthalen]",did not reveal any mutagenic activity,did not cause toxicity,did not reveal any mutagenic activity,,,,,,,,,,,,,,,,
COc1cc2c(cc1OC)CN(CCCC1CCCc3c(OCC[18F])cccc31)CC2 (stereo not shown) [[^18F]MC225],,,,24,42–44%,165,0.81,20,0.12,7.7,6–11 fold,2–4 fold,575,159,50,did not find significant differences,6.6–11,selectively transported by P-gp and not by BCRP,3.0
